Test results as given in patent US20050209104A1, “Dinoflagellate karlotoxins, methods of isolation and uses thereof” (priority 2002, published 2005).
≈ marks a conversion by molar mass, not a printed value. Like-named read-outs stand apart in the source and are kept apart here. Marks after values point to notes of the source that are not given here.

Columns and labels:
[1] = system: sheepshead minnow (Cyprinodon variegatus) larvae; assay: Static acute larval fish ichthyotoxicity bioassay (sheepshead minnow); format: in vivo; settings: algicide alone (control larvae without K. micrum)
Procedure: Ichthyotoxicity was evaluated using a static, acute (24-48 hour), small volume (2 ml), larval fish bioassay. Exposures were performed at 20° C. in 24-well non-tissue culture treated polystyrene plates (Becton Dickinson Labware, Franklin Lakes N.J.). Two species were utilized for ichthyotoxicity testing, zebrafish (Danio rerio) and sheepshead minnows (Cyprinodon variegatus), depending on their availability and salinity tolerance, with sheepshead minnows being tolerant to a wider range of salinities, but zebrafish being more readily obtainable in large numbers. Therefore, zebrafish, 5-<48 hrs old post-hatch, were used for toxic fraction testing, while sheepshead minnows, 3-<24 hours old post-hatch, were used to test whole dinoflagellate cultures. Larvae were not fed prior to or during testing. Previous experiments had shown that, at the biomass/water ratios used for each species, oxygen saturation remained >60% during the 48 hour exposure, as recommended in the Standard Guide for Conducting Acute Toxicity Tests with Fishes, Macroinvertebrates, and Amphibians (ASTM, 1992). All treatments were run in triplicate.
This experiment was run in triplicate. For these experiments, 12 psu ASW (Instant Ocean Brand) with added f/2-Si nutrient mixture (Guillard, 1975) and 1.5% soil extract and 0.3% chicken manure extract (alkalinity 75 mg L^−1 CaCO3) was used as the diluent. […]

[2] = system: rainbow trout erythrocytes; settings: for presence of hemolytic activity of copper solution: mixed with equal volume of 5% erythrocyte suspension
Procedure: The filtrate from water samples collected on Feb. […] Environmental water samples were allowed to thaw to room temperature and passed through a Sep-Pak Plus tC18 disposable cartridge (Waters Corp., Milford Mass.), attached to a vacuum manifold. The column was pre-equilibrated with methanol (20 ml) followed by H2O (20 ml). The cartridges were eluted with the following concentrations of MeOH/H2O: 100% H2O, 40%, 60%, 80%, and 100% MeOH (12 ml ea^−1). An aliquot of each elution was diluted, using Tris buffer +CaCl2, to give final dilutions ranging from 6 to 60% of original concentrations. […] The occurrence of hemolytic activity was determined by the absorbance of released hemoglobin, measured at 540 nm. Saponin (10 μg) served as a positive hemolysin control. Treatments were run in quadruplicate.
A hemolytic assay based on the lysis of fish erythrocytes was utilized to screen for bioactive materials. Cultures and culture fractions that were positive in the hemolytic assay were tested further using assays for ichthyotoxicity and cytotoxicity.
Blood was extracted from the caudal vein of rainbow trout (Oncorhynchus mykis) provided by the Center of Marine Biotechnology's Aquaculture Research Center. Needles were heparin (Sigma Chemical Co., St. Louis Mo.) treated and 10 units ml^−1 of additional heparin was added to whole blood samples to prevent clotting. […] Buffer pH was adjusted to 7.4 at 10° C. with 1N HCl, then filter sterilized (0.22 μm). […] Suspensions were stored at 4° C. for no longer than 10 days.
Hemolytic assays were performed by diluting test material in Tris buffer +CaCl2 (100 μl total) and adding this to a 5% erythrocyte suspension (100 μl). […] Assays were incubated on an orbital shaker (80-100 rpm) at 20° C. for 1 hour. Plates were then centrifuged at 2500 g for 5 min. and the supernatant (100 μl) was transferred to another flat bottom 96 well polystyrene plate, where the absorbance of released hemoglobin was read at 540 nm. Saponin (10 μg) (from Quillaja bark; Sigma Chemical Co., St. Louis Mo.) was used as a positive hemolysin control All treatments were run in quadruplicate.
LC50values and ranges were determined by Probit analysis (SPSS Base 10.0, SPSS Inc., Chicago Ill.).
Blood was extracted from the caudal vein of rainbow trout (Oncorhynchus mykis). […] Buffer pH was adjusted to 7.4 at 10° C. with 1N HCl, then filter sterilized (0.22 um). […] Blood suspensions were stored at 4° C. for no longer than 10 days.
Hemolysis assays were performed by diluting test material in Tris buFFer +CaCl2 (100 ul) and adding this to 100 ul of a 5% erythrocyte suspension for a total assay volume of 200 ul. […] Plates were incubated on an orbital shaker (80-100 rpm) at 20° C. for 1 hour. Plates were then centrifuged at 2000 g for 5 min. and the supernatant (100 ul) was transferred to a new flat bottom 96 well polystyrene plate, where the absorbance of released hemoglobin was read at 540 nm. Saponin (from Quillaja bark; Sigma Chemical Co., St. Louis Mo.) was used as a positive hemolysin control. Percent hemolysis (0-100%) was calculated from comparison to un-treated controls and samples treated with 10 ug saponin. All treatments were run in quadruplicate.
Hemolytic LC50 values were calculated from a dilution series of KmTx 2 and amphotericin B. LC50 values and ranges were determined by Probit analysis using a SPSS Base 10.0 statistical software package (SPSS Inc., Chicago, Ill.).

[3] = system: striped bass fingerlings; settings: comparable salinities, higher alkalinities (Reardon and Harrell, 1990); cited from earlier work
[4] = system: Karlodinium micrum (CCMP 1974); assay: Dinoflagellate lysis due to copper sulfate and potassium permanganate (K. micrum); format: cell-based; settings: exposures ≧2 mg L^−1 and only after 2 hours
[5] = for % DECREASE of measured free copper: n = 2
Procedure: The first experiment involved the addition of EDTA ([…]) [as EDTA +4 Na·2 H2O ] to 0.9% NaCl solutions containing CuSO4·5 H2O (0.1, 0.5, 2.5, or 10 mg L^−1 Cu). Free Cu was measured using the porphyrin method (range 0-210 μg L^−1 ) (HACH, Loveland Colo.). […] Each solution, with and without EDTA, was assayed for hemolytic activity.

[6] = system: Aspergillus niger (ATCC 1004); assay: Anti-fungal broth microdilution assay (filamentous fungi); format: cell-based
Procedure: (§1) The following fungal strains were purchased from the American Type Culture Collection (Manassas, Va.), Aspergillus niger (ATCC 1004) as a representative filamentous fungi, and Candida albicans (ATCC 14053) as a representative yeast. Assays were performed according to the following National Committee for Clinical Laboratory Standards documents; M27-A2 Reference Method for Broth Dilution Antifungal Susceptibility Testing of Yeasts; Approved Standard—Second Edition([NCCLS, 2002), and M38-A Reference Method for Broth Dilution Antifungal Susceptibility Testing of Filamentous Fungi; Approved Standard (NCCLS, 2002). Procedures for the broth microdilution modification were followed for both species with the following exceptions; A. niger stocks were maintained on Potato Dextrose Agar at 25° C., while C. albicans was maintained on Yeast Malt Agar at 28° C., both according to ATCC recommendations. Amphotericin B was used as a positive control. Microdilution assays were performed in HyQ-RPMI-1640 media (HyClone, Logan, Utah.), with 2.05 mM L-glutamine, without sodium bicarbonate, pH 7.2 using dilutions of 1 mg/ml DMSO stocks of KmTx 2 and amphotericin B.
(§2) The following concentrations were tested for both KmTx2 and amphotericin B: 0.0625, 0.125, 0.25, 0.5, 1, 2, 4, 8, and 16 μg/ml. A maximum of 1.6% DMSO was added to any given well. Plates were incubated at 25 and 28° C., respectively, for A. niger and C. albicans. […] Amphotericin B and all culture media were purchased from Sigma-Aldrich (St. Louis, Mo.).

[7] = system: Candida albicans (ATCC 14053); assay: Anti-fungal broth microdilution assay (yeast); format: cell-based
Procedure: as §1, §2

[8] = system: rainbow trout erythrocytes; assay: Membrane lipid inhibition assay of KmTx 2 hemolytic activity; format: cell-based; settings: for inhibition of the hemolytic activity of KmTx 2 by co-incubation: 0.001-10 μM sterol or lipid, KmTx 2 0.1, 0.5, 1 μg/ml
Procedure: To assess the inhibitory effects of exogenous membrane lipids on KmTx 2 hemolytic activity, the following sterols and lipids were tested: cholesterol, ergosterol, gymnodinosterol, and both natural and synthetic phosphatidylcholine. Cholesterol (5-cholesten-3β-ol) and L-α-phosphatidylcholine (brain, porcine) were purchased from Avanti Polar Lipids Inc. (Alabaster, Ala.); ergosterol (5,7,22-cholestatrien-24β-methyl-3β-ol) was purchased from Steraloids, Inc. (Newport, R.I.). Synthetic phosphatidylcholine (L-α-lecithin (β-γ-dipalmitoyl) was purchased from Calbiochem (San Diego, Calif.), Gymnodinosterol was isolated from filtered K. micrum (CCMP 2282) cells (isolation described in supplemental materials). KmTx 2: 0, 0.1, 0.5, and 1 μg/ml was added to solutions of Tris buffer +CaCl2 with either: 0, 0.001, 0.01, 0.1, 1 or 10 μM selected sterol or membrane lipid. Stock solutions of toxin and lipid were made in methanol and no more than 1% of each (2% total) was added to any given well. After brief mixing, these solutions were added 1: 1 with a diluted suspension of rainbow trout erythrocytes and hemolytic activity was assessed as described in supplemental materials.

[9] = system: rat embryonic fibroblast (REF 52) cells; assay: Ion permeation measurement, Ca^2+ flux with fura-2 (fibroblasts); format: cell-based; settings: 0.2 μM
Procedure: The following cell types were tested for toxicity due to KmTx 2; rat embryonic fibroblast, rat intestional epithelial, and isolated rabbit primary sensory neurons. Cells were cultured on No. 1 glass coverslips and loaded with fluorescent indicator (fura-2) and were examined on an inverted epifluorescence microscope (model Diaphot; 40×CF Fluor objective, N.A. 1.30; Nikon Corp.) coupled to a spectrofluorometer (model CM1T10I, SPEX Industries) operating in the microfluorometry mode. Cells were bathed in 4 ml of Dulbecco's modified Eagle's medium (DMEM) buffered with HEPES (pH 7.4). KmTx 2 (stock solution in DMSO) was directly bath-applied with gentle convective mixing. Fura-2 was alternately excited at 340 and 380 nm. Fluorescence emission was passed through a 510-nm bandpass filter before photometric quantitation. DATAMAX software (SPEX Industries) was used for data acquisition and instrument control. Origin software (OriginLab Corp.) was used for data reduction and analysis

[10] = any concentration (0.0625-16 μg/ml) after 24 hours

O.O.O.O.O.O=S(=O)([O-])[O-].[Cu+2] [CuSO4, CuSO4·5 H2O]
mortality or epithelial damage of sheepshead minnow larvae [1]: No mortality or epithelial damage
presence of hemolytic activity of copper solution ([2]; copper 5 mg L^−1 without EDTA): 4.957*
presence of hemolytic activity of copper solution ([2]; copper 20 mg L^−1 without EDTA): 21.110*
96h LC50 [3]: ca. 8 mg L^−1
Cell lysis [4]: occurred in K. micrum

O.O.O=C([O-])CN(CCN(CC(=O)[O-])CC(=O)[O-])CC(=O)[O-].[Na+].[Na+].[Na+].[Na+] [EDTA, EDTA +4 Na·2 H2O]
effect of EDTA on hemolytic activity due to Cu alone [2]: completely remove hemolytic activity
free Cu chelated ([5]; EDTA 2 mM, all concentrations tested): > 90%
% DECREASE of measured free copper ([5]; copper 0.2 mg L^−1, EDTA 2 mM): 96.3%
% DECREASE of measured free copper ([5]; copper 1 mg L^−1, EDTA 2 mM): 95.9%
% DECREASE of measured free copper ([5]; copper 5 mg L^−1, EDTA 2 mM): 90.4%
% DECREASE of measured free copper ([5]; copper 20 mg L^−1, EDTA 2 mM): 92.6%

C[C@@H]1[C@H](O)[C@@H](C)/C=C/C=C/C=C/C=C/C=C/C=C/C=C/[C@H](O[C@@H]2O[C@H](C)[C@@H](O)[C@H](N)[C@@H]2O)C[C@@H]2O[C@](O)(C[C@@H](O)C[C@@H](O)[C@H](O)CC[C@@H](O)C[C@@H](O)CC(=O)O[C@H]1C)C[C@H](O)[C@H]2C(=O)O [amphotericin B, reference compound]
growth [6, 10]: no growth was observed
Minimal inhibitory concentration (MIC) ([6]; lowest dose with no growth after 96 hours, 25° C.): 0.5 µg/mL (≈ 0.541 µM)
growth [7, 10]: no growth was observed
Minimal inhibitory concentration (MIC) ([7]; lowest dose with no growth after 96 hours, 28° C.): 0.125 µg/mL (≈ 0.135 µM)
hemolytic LC50 ([2]; probit analysis of dilution series): 3.759 µg/mL

CC(C)CCC[C@@H](C)[C@H]1CC[C@H]2[C@@H]3CC=C4C[C@@H](O)CC[C@]4(C)[C@H]3CC[C@]12C [cholesterol, 5-cholesten-3β-ol]
inhibition of the hemolytic activity of KmTx 2 by co-incubation [8]: inhibited
concentration at which complete inhibition was reached ([8]; co-incubation with KmTx 2): ca. 10 μM

CC(C)[C@@H](C)/C=C/[C@@H](C)[C@H]1CC[C@H]2C3=CC=C4C[C@@H](O)CC[C@]4(C)[C@H]3CC[C@]12C [ergosterol, 5,7,22-cholestatrien-24β-methyl-3β-ol]
inhibition of the hemolytic activity of KmTx 2 by co-incubation [8]: inhibited
concentration at which inhibition plateaued ([8]; co-incubation with KmTx 2): ca. 1 μM

CC(C)[C@H](C)C=C[C@@H](C)[C@H]1CCC2=C3CC[C@H]4[C@H](C)[C@@H](O)CC[C@]4(C)[C@H]3CC[C@@]21C [gymnodinosterol, (24S)-4α-methyl-5α-ergosta-8(14),22-dien-3β-ol]
inhibition of the hemolytic activity of KmTx 2 by co-incubation [8]: not inhibited

CCCCCCCCCCCCCCCC(=O)OC[C@H](COP(=O)([O-])OCC[N+](C)(C)C)OC(=O)CCCCCCCCCCCCCCC [synthetic dipalmitoyl (16:0), L-α-lecithin (β-γ-dipalmitoyl)]
inhibition of the hemolytic activity of KmTx 2 by co-incubation [8]: no inhibition

NC(=O)CC[C@@H]1NC(=O)[C@H](Cc2ccccc2)NC(=O)[C@H](Cc2ccc(O)cc2)NC(=O)[C@@H](N)CSSC[C@@H](C(=O)N2CCC[C@H]2C(=O)N[C@@H](CCCN=C(N)N)C(=O)NCC(N)=O)NC(=O)[C@H](CC(N)=O)NC1=O [vasopressin, reference compound]
cytosolic Ca^2+ levels [9]: spike in cytosolic Ca^2+ levels followed by rapid decline to level above baseline

L-α-phosphatidylcholine (brain, porcine) [natural brain phosphotidylcholine]
inhibition of the hemolytic activity of KmTx 2 by co-incubation [8]: no inhibition
